Measurements from the supplement of paper PMC10307832.

Key:
Experiment in all cases: relative viability (nuclei count vs DMSO), 5 days (fraction); higher = more cells survive
BI-D1870 + Bortezomib = compound: CC(C)CCN1c2nc(Nc3cc(F)c(O)c(F)c3)ncc2N(C)C(=O)C1C [BI-D1870] + CC(C)C[C@H](NC(=O)[C@H](Cc1ccccc1)NC(=O)c1cnccn1)B(O)O [Bortezomib] (partner 0.002 µM)
Outline: (§1)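 One day after seeding in 1536-well plates, lung cancer cell lines were dosed by pin tool. Dosing was either single-drug or a fixed anchor-drug dose plus five library-drug doses (not always all listed) in √10 steps. After 5 days, nuclei were stained in one fix-and-stain step and counted on 4× images, and relative viability is the nuclei count of treated wells over that of vehicle wells, given as the median of duplicate plates.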

Zebularine + Bortezomib = compound: O=c1ncccn1[C@@H]1O[C@H](CO)[C@@H](O)[C@H]1O [Zebularine] + CC(C)C[C@H](NC(=O)[C@H](Cc1ccccc1)NC(=O)c1cnccn1)B(O)O [Bortezomib] (partner 0.002 µM)
Outline: as §1

Zebularine + AZD7762 = compound: O=c1ncccn1[C@@H]1O[C@H](CO)[C@@H](O)[C@H]1O [Zebularine] + NC(=O)Nc1cc(-c2cccc(F)c2)sc1C(=O)N[C@H]1CCCNC1 [AZD7762] (partner 0.2 µM)
Outline: as §1

BI-D1870 + Crizotinib = compound: CC(C)CCN1c2nc(Nc3cc(F)c(O)c(F)c3)ncc2N(C)C(=O)C1C [BI-D1870] + C[C@@H](Oc1cc(-c2cnn(C3CCNCC3)c2)cnc1N)c1c(Cl)ccc(F)c1Cl [Crizotinib] (partner 1 µM)
Outline: as §1

Cell Line	relative viability (BI-D1870 + Bortezomib; first compound 0.04 µM)	relative viability (BI-D1870 + Bortezomib; first compound 0.1265 µM)	relative viability (BI-D1870 + Bortezomib; first compound 0.4 µM)	relative viability (BI-D1870 + Bortezomib; first compound 1.265 µM)	relative viability (BI-D1870 + Bortezomib; first compound 4 µM)	relative viability (Zebularine + Bortezomib; first compound 1 µM)	relative viability (Zebularine + Bortezomib; first compound 3.162 µM)	relative viability (Zebularine + Bortezomib; first compound 10 µM)	relative viability (Zebularine + Bortezomib; first compound 31.62 µM)	relative viability (Zebularine + Bortezomib; first compound 100 µM)	relative viability (Zebularine + AZD7762; first compound 1 µM)	relative viability (Zebularine + AZD7762; first compound 3.162 µM)	relative viability (Zebularine + AZD7762; first compound 10 µM)	relative viability (Zebularine + AZD7762; first compound 31.62 µM)	relative viability (Zebularine + AZD7762; first compound 100 µM)	relative viability (BI-D1870 + Crizotinib; first compound 0.04 µM)	relative viability (BI-D1870 + Crizotinib; first compound 0.1265 µM)	relative viability (BI-D1870 + Crizotinib; first compound 0.4 µM)	relative viability (BI-D1870 + Crizotinib; first compound 1.265 µM)	relative viability (BI-D1870 + Crizotinib; first compound 4 µM)
HCC-15	1.03	1.01	0.922	1.04	0.863	1.19	1.03	0.723	0.962	0.456	1.24	1.41	0.883	1.17	0.984	0.919	0.733	0.74	0.81	0.594
HCC-44	1.08	0.965	0.909	0.941	0.99	0.95	0.868	0.483	0.827	0.251	1.11	1.03	1.15	1.14	1.01	0.921	0.798	0.771	0.851	0.829
HCC-78	0.545	0.402	0.492	0.56	0.42	0.497	0.512	0.407	0.42	0.355	0.716	0.743	–	0.648	0.468	0.365	0.318	0.309	0.295	0.245
NCI-H727	0.813	0.724	0.913	1.24	0.833	0.901	0.816	0.737	0.943	0.762	0.785	0.703	0.606	0.646	0.574	0.986	0.672	0.938	0.922	0.853
NCI-H2087	0.829	0.845	0.927	1.13	0.839	0.977	0.747	0.512	0.662	0.321	1.55	1.38	0.735	0.794	0.465	0.918	0.914	1	1.11	0.739
BEN	0.897	0.793	0.971	0.979	0.663	0.938	0.714	0.345	0.372	0.265	0.808	0.587	0.504	0.496	0.296	1.12	0.722	1.01	0.99	0.822
LCLC-103H	1.28	1.09	1.06	1.17	1.06	1.19	1.1	0.886	1.19	1.01	0.8	0.798	0.579	0.802	0.689	1.18	0.889	0.868	1.1	1.03
EKVX	1.14	1.1	0.938	1.15	1.05	1.27	1.05	–	0.88	1.06	0.846	0.816	–	0.593	0.772	0.929	0.986	0.92	0.941	0.816
LXF-289	1.05	1.02	1	0.977	0.879	1.04	0.993	0.94	0.748	0.301	1.07	1.16	1.11	0.699	0.281	0.905	0.796	0.797	0.793	0.619
ABC-1	0.306	0.353	0.232	0.298	0.244	0.295	0.248	0.249	0.275	0.349	0.816	–	0.554	0.538	0.54	1.19	0.49	1.12	0.988	0.591
NCI-H650	1.11	0.784	0.899	0.96	0.611	0.956	0.654	0.557	0.525	0.357	1.03	1.04	0.908	0.551	0.317	0.672	0.667	0.695	0.662	0.405
NCI-H2085	1.17	0.994	0.947	0.968	0.762	1.12	0.971	0.828	1.06	0.683	1.11	1.07	0.788	1.13	0.66	0.861	0.561	0.819	0.724	0.772
LC-2-ad	1.11	0.921	0.999	1.04	0.953	1.09	0.76	0.521	0.605	0.148	0.907	0.888	0.525	0.812	0.357	0.51	0.454	0.394	0.544	0.434
NCI-H1355	1.24	1.22	1.21	1.28	1.02	1.3	1.2	0.844	0.493	0.335	0.722	0.8	0.543	0.588	0.338	1.12	0.985	1.1	1.08	1.11
H3255	0.67	0.779	0.769	0.969	0.748	0.897	0.736	0.419	0.775	0.942	1.08	0.909	0.744	0.995	0.904	0.831	0.924	0.862	0.987	0.981
NCI-H1993	1.22	0.961	1.12	1.31	0.981	1.26	1.1	–	1.14	0.778	0.76	0.881	0.625	0.671	0.493	0.891	0.842	0.801	0.916	0.73
